# Data published in US7868135B2, “Compositions of lipopeptide antibiotic derivatives and methods of use thereof” (priority 2003, dated 2011).
# Read-outs that look alike come from different tables or passages of the source.
# Experiments:
# [1] = In vivo half-life after single i.v. administration, mice; settings: female, Swiss CD1, mouse, plasma, iv, 10 mg/kg
# Protocol: Yet other exemplary in vivo models can be used to characterize the pharmacokinetics and pharmacodynamic parameters of antimicrobial compounds of this disclosure. Some parameters that can be measured include an in vivo half-life of a compound, elimination rate and clearance, volume of distribution, and bioavailability. For example, briefly, compounds can be administered as a single i.v. or oral (p.o.) dose in mice or rats. At various time points (ranging from 1 minute to 72 hours), blood from treated animals is collected and the concentration of lipopeptide derivative in the ex vivo plasma can be quantified by, for example, liquid chromatography with mass spectrometric detection (LC/MS). After quantification, pharmacokinetics parameters can be calculated using methods known in the art, such as a one compartment model with mono-exponential decay and linear regression analysis (see, e.g., Fantin et al., Antimicrob. Agents Chemotherap. 35: 1413. 1991).
# A pharmacokinetic parameter that can be measured, and which aids in determining efficacy, after a single i.v. administration of an antimicrobial lipopeptide derivative of the instant disclosure is the systemic half-life of the compound. Briefly, test compounds were dissolved in a 5% mannitol solution (pH was then adjusted) to a concentration of 1 mg/mL (w/v). A single intravenous injection in the lateral caudal vein of Swiss CD1 mice (5 to 6 weeks old, female) or Sprague Dawley rats (male) was used to administer the lipopeptide derivative at a final dose of 10 mg/kg. At various time points (ranging from about 4 minutes to about 24 hours for mice, and 48 or 72 hours for rats) mice were sacrificed and blood was harvested. The concentration of lipopeptide derivative in ex vivo plasma was quantified using liquid chromatography (LC) with mass spectrometric detection (MS).
# [2] = test system: Staphylococcus aureus (MSSA)
# How it was run: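 Broth microdilution MIC per NCCLS M7-A6 with doubling serial dilutions, in cation-adjusted Mueller-Hinton broth supplemented with 0.625 mM calcium.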
# [3] = test system: S. aureus Smith (SAU0017, ATCC 19636); assay: Intraperitoneal murine model of protection against infection (ED50, Table 21); format: in vivo, Staphylococcus aureus; settings: Swiss CD1 mice infected i.p., compound i.v.
# From the text: A variety of in vivo models may be used to assess the antimicrobial properties of lipopeptide derivative compounds of this disclosure. For example, antimicrobial compounds of the instant disclosure may be tested for efficacy by measuring a compound's ability to protect a mouse against a microbial infection, such as an infection or disease caused by or related to Gram-positive bacteria, including Staphylococcus aureus, Streptococcus pneumoniae, and Enterococcus faecalis. […] A certain period after infection, mice are then individually treated, for example intravenously (i.v.), with a lipopeptide derivative of this disclosure.
# Antimicrobial lipopeptide derivatives of the instant invention were tested for antimicrobial activity against Gram-positive bacteria in an intraperitoneal (i.p.) murine model (i.e., bacteria were injected i.p. and lipopeptide compounds were administered intravenously (i.v.)). Mice were infected with Staphylococcus aureus, Streptococcus pneumoniae, or Enterococcus faecalis, which were prepared as follows: S. aureus Smith (SAU0017, ATCC 19636) were grown in culture overnight on trypticase soy broth, harvested and then resuspended in fresh media containing 5% mucin (Sigma Chemical Co.); S. pneumoniae (SPN 0032, ATCC 10813) were grown overnight on blood agar plates and re-suspended in 0.9% sterile saline; and E. faecalis EFS0040 (clinical isolate) were grown overnight in culture on blood heart infusion broth, washed and resuspended in 0.9% saline and mixed with equal volume of sterile fecal rat extract. Swiss CD1 mice were each infected i.p. with bacteria at the following doses: S. aureus at 10^6 CFU/mouse; S. pneumoniae at 10^2 CFU/mouse; or E. faecalis at 10^7.5 CFU/mouse. […] The ED50 for each compound was calculated using the method of Reed and Meunch (Am. J. Hyg. 27: 493, 1938).
# [4] = test system: Enterococcus faecium EFM0101 (VRE, MDR); assay: Broad spectrum MIC, Table 17/18 column A; format: cell-based; settings: condition A of Table 17, in µg/mL
# Protocol: (§1) The antimicrobial lipopeptide derivatives described herein were tested for antimicrobial activity against Gram-positive bacteria as follows. The minimum inhibitory concentrations (MIC) of the antimicrobial lipopeptide derivatives of the invention were determined using NCCLS guidelines M7-A6 (2003) with a slight modification in that doubling serial dilutions were used to dilute the test compounds. The broth phase microdilution method was used. Isolated colonies of Staphylococcus aureus (MSSA) from an 18-24 hour blood agar plate cultures were used to inoculate cation adjusted Mueller-Hinton broth (CAMHB) supplemented with 0.625 mM calcium. […] A negative control containing media alone and a positive growth control containing bacteria with media alone were also included. MICs were determined after incubating the plates at about 37° C. for 24 hours. […] In Tables 1 to 16, R is the core cyclic peptide of amphomycin or aspartocin, which can be in the form of a β-isomer, an anhydro, a dianhydro, or any combination thereof. […] Furthermore, a person of skill in the art will appreciate that all the pounds, or groups of compounds, derived from the various combinations of and substituents shown in Tables 1 to 16, are disclosed by the present the same extent as if each compound or group of compounds was set forth individually.
# (§2) Antimicrobial lipopeptide derivatives of the instant invention were tested for antimicrobial activity against Gram-positive bacteria in a variety of media conditions. The […] (MIC) of the antimicrobial lipopeptide derivatives were determined as described in Example 376. The various media used are described in Table 17.
# [5] = test system: Staphylococcus aureus SAU0017 (MSSA); assay: Broad spectrum MIC, Table 17/18 columns E, F (+ 0.625 mM calcium; + calcium and 30% bovine serum); format: cell-based; settings: in µg/mL; for MIC, media condition E: condition E: + 0.625 mM calcium; for MIC, media condition F: condition F: + calcium and 30% bovine serum
# Protocol: as §1, §2
# [6] = test system: Enterococcus faecalis EFS0004 (VSE); assay: Broad spectrum MIC, Table 17/18 B, C, D (CAMHB; + 0.625 mM calcium; + calcium and 30% bovine serum); format: cell-based; settings: in µg/mL; for MIC, media condition B: condition B: CAMHB; for MIC, media condition C: condition C: + 0.625 mM calcium; for MIC, media condition D: condition D: + calcium and 30% bovine serum
# Protocol: as §1, §2
# [7] = test system: Streptococcus pyogenes SPY0001 (PenS); assay: Broad spectrum MIC, Table 17/18 column M; format: cell-based; settings: condition M of Table 17, in µg/mL
# Protocol: as §1, §2
# [8] = test system: Staphylococcus aureus SAU0031 (VISA); assay: Broad spectrum MIC, Table 17/18 column G; format: cell-based; settings: condition G of Table 17, in µg/mL
# Protocol: as §1, §2
# [9] = test system: Staphylococcus aureus SAU0065 (MRSA); assay: Broad spectrum MIC, Table 17/18 column H; format: cell-based; settings: condition H of Table 17, in µg/mL
# Protocol: as §1, §2
# [10] = test system: Streptococcus pneumoniae SPN0023 (PRSP); assay: Broad spectrum MIC, Table 17/18 column K; format: cell-based; settings: condition K of Table 17, in µg/mL
# Protocol: as §1, §2
# [11] = test system: Streptococcus pneumoniae SPN0002 (PISP); assay: Broad spectrum MIC, Table 17/18 column J; format: cell-based; settings: condition J of Table 17, in µg/mL
# Protocol: as §1, §2
# [12] = test system: Streptococcus pneumoniae SPN0032 (PSSP); assay: Broad spectrum MIC, Table 17/18 column L; format: cell-based; settings: condition L of Table 17, in µg/mL
# Protocol: as §1, §2
# [13] = test system: Staphylococcus epidermidis SEP0375 (MRSE); assay: Broad spectrum MIC, Table 17/18 column I; format: cell-based; settings: condition I of Table 17, in µg/mL
# Protocol: as §1, §2
SMILES,half-life [1] [h],"MIC ([2]; S. aureus (MSSA), CAMHB supplemented with 0.625 mM calcium, 24 hours at about 37° C., a range = compound tested multiple times)","ED50 in Mice, S. aureus (SAU0017) [3] [mg/kg]","MIC, media condition A [4]","MIC, media condition E [5]","MIC, media condition F [5]","MIC, media condition B [6]","MIC, media condition C [6]","MIC, media condition D [6]","MIC, media condition M [7]","MIC, media condition G [8]","MIC, media condition H [9]",MIC ([2]; 24 h) [µg/mL],"MIC, media condition K [10]","MIC, media condition J [11]","MIC, media condition L [12]","MIC, media condition I [13]"
"CCCCCCCCCCCCCC(=O)NC(CC(=O)O)C(=O)NC1C(=O)N2CCCCC2C(=O)NC(C(C)C(=O)O)C(=O)NC(CC(=O)O)C(=O)NCC(=O)NC(CC(=O)O)C(=O)NCC(=O)NC(C(C)NC(=O)CNC)C(=O)NC(C(C)C)C(=O)N2CCCC2C(=O)NC1C (centres unmarked) [Compound 60, C14-Amphomycin-9-Sar]",4.13,60/0.5 μg/mL,10,,,,,,,,,,,,,,
"CCCCCCCCCCCCNC(=O)NC(CC(=O)O)C(=O)NC1C(=O)N2CCCCC2C(=O)NC(C(C)C(=O)O)C(=O)NC(CC(=O)O)C(=O)NCC(=O)NC(CC(=O)O)C(=O)NCC(=O)NC(C(C)NC(=O)CCN)C(=O)NC(C(C)C)C(=O)N2CCCC2C(=O)NC1C (stereo not drawn) [Compound 97, CH3—(CH2)11—NH—C(═O)-Amphomycin-9-(β-Ala)]",,,,2,0.25,16,64,4,64,0.5,4,1,0.25,0.25,0.125,0.125,1
"CCCCCCCCCCCCNC(=O)NC(CC(=O)O)C(=O)NC1C(=O)N2CCCCC2C(=O)NC(C(C)C(=O)O)C(=O)NC(CC(=O)O)C(=O)NCC(=O)NC(CC(=O)O)C(=O)NCC(=O)NC(C(C)NC(=O)CNC)C(=O)NC(C(C)C)C(=O)N2CCCC2C(=O)NC1C (centres unmarked) [Compound 98, CH3—(CH2)11—NH—C(═O)-Amphomycin-9-Sar]",,,,2,0.5,16,32,4,>64,0.5,4,1,0.5,0.25,0.125,0.5,1
"CCCCCCCCCCCCC(=O)NC(CC(=O)O)C(=O)NC1C(=O)N2CCCCC2C(=O)NC(C(C)C(=O)O)C(=O)NC(CC(=O)O)C(=O)NCC(=O)NC(CC(=O)O)C(=O)NCC(=O)NC(C(C)NC(=O)CNC(=O)[C@@H](N)CCCCN)C(=O)NC(C(C)C)C(=O)N2CCCC2C(=O)NC1C (some centres unmarked) [Compound 128, C13-Amphomycin-9-Gly-Lys]",0.198,,6.2,,,,,,,,,,,,,,
"CCCCCCCCCCCCCCC(=O)NC(CC(=O)O)C(=O)NC1C(=O)N2CCCCC2C(=O)NC(C(C)C(=O)O)C(=O)NC(CC(=O)O)C(=O)NCC(=O)NC(CC(=O)O)C(=O)NCC(=O)NC(C(C)NC(=O)[C@@H]2CCCN2)C(=O)NC(C(C)C)C(=O)N2CCCC2C(=O)NC1C (some centres unmarked) [Compound 160, C15-Amphomycin-9-Pro]",,,,8,4,>64,16,8,>64,2,16,4,4,0.25,0.5,2,4
"CCCCCCCCCCCCNC(=O)NC(CC(=O)O)C(=O)NC1C(=O)N2CCCCC2C(=O)NC(C(C)C(=O)O)C(=O)NC(CC(=O)O)C(=O)NCC(=O)NC(CC(=O)O)C(=O)NCC(=O)NC(C(C)N)C(=O)NC(C(C)C)C(=O)N2CCCC2C(=O)NC1C (centres unmarked) [Compound 251, CH3—(CH2)11—NH—C(═O)-Amphomycin]",,,,4,2,8,8,4,32,2,4,2,2,1,0.5,1,2
"CCCCCCCCCCCCCCNC(=O)NC(CC(=O)O)C(=O)NC1C(=O)N2CCCCC2C(=O)NC(C(C)C(=O)O)C(=O)NC(CC(=O)O)C(=O)NCC(=O)NC(CC(=O)O)C(=O)NCC(=O)NC(C(C)N)C(=O)NC(C(C)C)C(=O)N2CCCC2C(=O)NC1C (centres unmarked) [Compound 253, CH3—(CH2)13—NH—C(═O)-Amphomycin]",5.15,,4.8,0.5-1,0.5-1,2-4,1,0.5-1,16-32,0.25,2-4,1-2,0.5 to 1,0.125,0.125,0.125,1
